Source: US8822449B2, “Substituted aminoindanes and analogs thereof, and the pharmaceutical use thereof” (Sanofi, priority 2008, dated 2014)

What follows are compounds tested against T1, sodium-proton exchanger of subtype 3 (NHE3) (Homo sapiens, UniProt P48764) (assay: Recovery of intracellular pH (pHi) after acidification in LAP1 cells stably expressing NHE3 (BCECF fluorescence, FLIPR)). Conditions: Activity range (inhibitory effect on NHE3), LAP1 cells stably expressing NHE3; pH recovery after acidification; range 1 is % inhibition at 10 μM.
T1 construct: expressed in transfected cells
T1 sequence (P48764 26-834): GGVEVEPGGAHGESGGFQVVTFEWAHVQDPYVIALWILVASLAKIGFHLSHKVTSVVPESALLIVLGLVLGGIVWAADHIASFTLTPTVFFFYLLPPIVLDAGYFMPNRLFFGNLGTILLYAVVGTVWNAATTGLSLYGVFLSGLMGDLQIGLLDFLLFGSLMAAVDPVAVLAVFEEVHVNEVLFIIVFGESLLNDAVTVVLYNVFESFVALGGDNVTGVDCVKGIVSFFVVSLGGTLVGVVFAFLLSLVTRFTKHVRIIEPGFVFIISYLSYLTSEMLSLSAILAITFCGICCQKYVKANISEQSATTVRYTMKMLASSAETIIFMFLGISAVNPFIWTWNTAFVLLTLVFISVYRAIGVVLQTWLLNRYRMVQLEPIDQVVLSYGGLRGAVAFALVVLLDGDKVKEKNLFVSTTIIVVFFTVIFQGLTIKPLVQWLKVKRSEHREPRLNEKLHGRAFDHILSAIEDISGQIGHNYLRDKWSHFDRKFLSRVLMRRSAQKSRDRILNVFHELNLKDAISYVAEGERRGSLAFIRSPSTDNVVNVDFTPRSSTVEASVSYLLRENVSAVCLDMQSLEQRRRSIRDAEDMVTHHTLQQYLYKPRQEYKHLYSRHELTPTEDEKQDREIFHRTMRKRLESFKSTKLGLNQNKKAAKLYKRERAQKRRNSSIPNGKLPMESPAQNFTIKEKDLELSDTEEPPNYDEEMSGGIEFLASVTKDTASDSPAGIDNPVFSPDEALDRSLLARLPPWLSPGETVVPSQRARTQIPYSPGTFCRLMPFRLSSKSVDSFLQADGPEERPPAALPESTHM
Format: cell-based

Structure (SMILES)	IC50 [nM]
CC(=O)Nc1cccc(O[C@H]2c3cc(Cl)cc(Cl)c3C[C@@H]2N2C[C@H]3CC[C@@H](C2)N3)c1 [Example 664, N-[3-(trans-(1S,2S)-4,6-dichloro-2-3,8-diazabicyclo[3.2.1]oct-3-ylindan-1-yloxy)phenyl]acetamide]	< 1000
CCN(CC)[C@@H]1Cc2ccccc2[C@H]1Oc1ccc(N2CCNCC2)cc1 (racemic) [Example 627, Diethyl-[rac-trans-(1,2)-1-(4-piperazin-1-ylphenoxy)indan-2-yl]amine]	1000 to 10000

Same assay, conditions: LAP1 cells stably expressing NHE3; pH recovery after acidification; range 1 is % inhibition at 10 μM; read-out: Activity range (inhibitory effect on NHE3)

Structure (SMILES)	inhibition at 10 µM [%]	IC50 [nM]
CS(=O)(=O)c1ccc(O[C@H]2c3ccccc3C[C@@H]2N2CCCC2)cc1Cl (racemic) [Example 268, 1-[rac-trans-(1,2)-1-(3-chloro-4-methanesulfonylphenoxy)indan-2-yl]pyrrolidine]	20 to 50	–
Cc1nnc(C)n1-c1ccc(O[C@H]2c3cc(Cl)cc(Cl)c3C[C@@H]2N2CCC[C@@H](O)C2)cc1 [Example 132, (R)-1-{trans-(1S,2S)-4,6-dichloro-1-[4-(3,5-dimethyl-[1,2,4]triazol-4-yl)phenoxy]indan-2-yl}piperidin-3-ol]	–	< 1000
Nc1ccc2c(O[C@H]3c4ccccc4CC[C@@H]3N3CCC[C@H](N)C3)cccc2c1 (racemic) [Example 189, (S)-1-[rac-trans-(1,2)-1-(6-aminonaphthalen-1-yloxy)-1,2,3,4-tetrahydronaphthalen-2-yl]piperidin-3-ylamine]	–	1000 to 10000
N[C@H]1CCCN([C@@H]2Cc3ccccc3[C@H]2Oc2cccc(CN3CCCCC3)c2)C1 (racemic) [Example 170, (S)-1-[rac-trans-(1,2)-1-(3-piperidin-1-ylmethylphenoxy)indan-2-yl]piperidin-3-ylamine]	–	1000 to 10000
CS(=O)(=O)c1ccc(O[C@H]2c3cc(Cl)cc(Cl)c3C[C@@H]2N2CCC[C@@H](NCCC(F)(F)F)C2)cc1 [Example 223, {(R)-1-[trans-(1S,2S)-4,6-dichloro-1-(4-methanesulfonylphenoxy)indan-2-yl]piperidin-3-yl}-(3,3,3-trifluoropropyl)amine]	–	< 1000
N[C@H]1CCCN([C@H]2CCc3ccccc3[C@@H]2Oc2cnc3ccccc3c2)C1 (racemic) [Example 192, (S)-1-[rac-trans-(1,2)-1-(quinolin-3-yloxy)-1,2,3,4-tetrahydronaphthalen-2-yl]piperidin-3-ylamine]	20 to 50	–
COc1cc(O[C@H]2c3ccccc3CC[C@@H]2N2CCC[C@H](N)C2)ccc1Br (racemic) [Example 173, (S)-1-[rac-trans-(1,2)-1-(4-bromo-3-methoxyphenoxy)-1,2,3,4-tetrahydronaphthalen-2-yl]piperidin-3-ylamine]	20 to 50	–
Clc1cc(Cl)c2c(c1)[C@H](Oc1ccc(-n3cncn3)cc1)[C@@H](N1CC3CNCC3C1)C2 (mixture of isomers) [Example 377, 2-[rac-trans-(1,2)-4,6-dichloro-1-(4-[1,2,4]triazol-1-ylphenoxy)indan-2-yl]octahydropyrrolo[3,4-c]pyrrole]	–	< 1000
N[C@@H]1CCCN([C@H]2Cc3c(Cl)cc(Cl)cc3[C@@H]2Oc2ccc(F)c3cccnc23)C1 [Example 27, (R)-1-[(1S,2S)-4,6-dichloro-1-(5-fluoroquinolin-8-yloxy)indan-2-yl]piperidin-3-ylamine]	–	< 1000
N[C@@H]1CCCN([C@H]2CCc3ccccc3[C@@H]2Oc2ccc(F)c3cccnc23)C1 (racemic) [Example 79, (R)-1-[rac-trans-(1,2)-1-(5-fluoroquinolin-8-yloxy)-1,2,3,4-tetrahydronaphthalen-2-yl]piperidin-3-ylamine]	–	< 1000
COc1cccc(OC)c1O[C@H]1c2ccccc2CC[C@@H]1N1CCC[C@@H](N)C1 (racemic) [Example 34, (R)-1-[rac-trans-(1,2)-1-(2,6-dimethoxyphenoxy)-1,2,3,4-tetrahydronaphthalen-2-yl]piperidin-3-ylamine]	20 to 50	–
Cc1c(O[C@H]2c3cc(Cl)cc(F)c3C[C@@H]2N2CC[C@@H](O)C2)ccc(-n2c(C)nnc2C)c1C [Example 141, (R)-1-{trans-(1S,2S)-6-chloro-1-[4-(3,5-dimethyl-[1,2,4]triazol-4-yl)-2,3-dimethylphenoxy]-4-fluoroindan-2-yl}pyrrolidin-3-ol]	–	< 1000
CS(=O)(=O)c1ccc(O[C@H]2c3cc(Cl)cc(Cl)c3C[C@@H]2N2CCCNCC2)cc1 [Example 298, 1-[trans-(1S,2S)-4,6-dichloro-1-(4-methanesulfonylphenoxy)indan-2-yl]-[1,4]diazepane]	–	< 1000

Next, values leading:

inhibition at 10 µM [%]	IC50 [nM]	Structure (SMILES)
–	1000 to 10000	NCC1CCN([C@@H]2Cc3ccccc3[C@H]2Oc2ccc3c(c2)OCO3)C1 (mixture of isomers) [Example 621, C-{1-[rac-trans-(1,2)-1-(benzo[1,3]dioxol-5-yloxy)indan-2-yl]pyrrolidin-3-yl}methylamine]
–	1000 to 10000	CC1(C)NC(=O)N(c2ccc(Cl)c(O[C@H]3c4cc(Cl)cc(F)c4C[C@@H]3N3CC[C@@H](O)C3)c2)C1=O [Example 436, 3-{4-chloro-3-[(1S,2S)-6-chloro-4-fluoro-2-((R)-3-hydroxypyrrolidin-1-yl)indan-1-yloxy]phenyl}-5,5-dimethylimidazolidine-2,4-dione]
–	1000 to 10000	CC(=O)Nc1cccc(OC2c3ccccc3CC2N2CC[C@@H](O)C2)c1 (mixture of isomers) [Example 681, N-{3-[rac-trans-(1,2)-2-((R)-3-hydroxypyrrolidin-1-yl)indan-1-yloxy]phenyl}acetamide]
–	< 1000	CC(=O)Nc1cccc(O[C@H]2c3cc(Cl)cc(Cl)c3C[C@@H]2N2CC3CNCC3C2)c1 (mixture of isomers) [Example 689, N-{3-[rac-trans-(1,2)-4,6-dichloro-2-(hexahydropyrrolo[3,4-c]pyrrol-2-yl)indan-1-yloxy]phenyl}acetamide]
–	< 1000	Cc1nnc(C)n1-c1ccc(O[C@H]2c3cc(Cl)ccc3C[C@@H]2N2CCCC2)c(F)c1 [Example 501, 4-[4-(trans-(1S,2S)-6-chloro-2-pyrrolidin-1-ylindan-1-yloxy)-3-fluorophenyl]-3,5-dimethyl-4H-[1,2,4]triazole]
–	1000 to 10000	O=C1OCCN1c1cccc(O[C@H]2c3cc(Cl)cc(Cl)c3C[C@@H]2N2CC[C@@H](O)C2)c1 [Example 419, 3-{3-[(1S,2S)-4,6-dichloro-2-((R)-3-hydroxypyrrolidin-1-yl)indan-1-yloxy]phenyl}oxazolidin-2-one]
–	1000 to 10000	Cc1nnc(C)n1-c1ccc(O[C@@H]2c3ccccc3C[C@@]2(C)N2CCCC2)c(F)c1 (racemic) [Example 494, 4-[3-fluoro-4-(-2-methyl-2-pyrrolidin-1-ylindan-1-yloxy)phenyl]-3,5-dimethyl-4H-[1,2,4]triazole]
–	< 1000	N#Cc1ccc(O[C@H]2c3cc(Cl)cc(Cl)c3C[C@@H]2N2CCNCC2)c(F)c1 [Example 456, 4-((1S,2S)-4,6-dichloro-2-piperazin-1-ylindan-1-yloxy)-3-fluorobenzonitrile]
–	< 1000	CC(=O)Nc1cccc(O[C@H]2c3ccccc3C[C@@H]2N2CCCCC2)c1 [Example 663, N-[3-(trans-(1S,2S)-2-piperidin-1-ylindan-1-yloxy)phenyl]acetamide]
–	1000 to 10000	N#Cc1ccc(O[C@@H]2c3ccccc3C[C@H]2N2CCC(CN)C2)cc1Cl (mixture of isomers) [Example 540, 4-[rac-trans-(1,2)-2-(3-aminomethylpyrrolidin-1-yl)indan-1-yloxy]-2-chlorobenzonitrile]
–	< 1000	CS(=O)(=O)c1nccn1-c1ccc(O[C@H]2c3cc(Cl)cc(Cl)c3C[C@@H]2N2CC[C@@H](O)C2)cc1 [Example 731, (R)-1-{trans-(1S,2S)-4,6-Dichloro-1-[4-(2-methanesulfonyl-imidazol-1-yl)-phenoxy]-indan-2-yl}-pyrrolidin-3-ol]
–	1000 to 10000	NS(=O)(=O)c1ccc(O[C@H]2c3ccccc3C[C@@H]2N2CC[C@@H](CO)C2)cc1 (racemic) [Example 526, 4-[rac-trans-(1,2)-2-((R)-3-Hydroxymethylpyrrolidin-1-yl)indan-1-yloxy]benzenesulfonamide]
–	< 1000	CN(c1ccc(O[C@H]2c3cc(Cl)cc(Cl)c3C[C@@H]2N2CC[C@@H](O)C2)cc1)S(C)(=O)=O [Example 698, N-{4-[(1S,2S)-4,6-dichloro-2-((R)-3-hydroxypyrrolidin-1-yl)indan-1-yloxy]phenyl}-N-methylmethanesulfonamide]
–	1000 to 10000	O=C1CCc2c(cccc2O[C@H]2c3cc(Cl)cc(Cl)c3C[C@@H]2N2CC[C@@H](O)C2)N1 [Example 574, 5-[(1S,2S)-4,6-dichloro-2-((R)-3-hydroxypyrrolidin-1-yl)indan-1-yloxy]-3,4-dihydro-1H-quinolin-2-one]
–	1000 to 10000	CCc1ccc(O[C@@H]2c3ccccc3C[C@H]2N2CCC(CN)CC2)c(C(C)(C)C)c1 (racemic) [Example 609, C-{1-[rac-trans-(1,2)-1-(2-tert-butyl-4-ethylphenoxy)indan-2-yl]piperidin-4-yl}methylamine]
